Counter-ions that a name gives are not always drawn. Peptide text beside a SMILES is read from it. * marks the point of attachment. Benzoyl(4-Br) = O=C(c1ccc(Br)cc1)*; Benzoyl(4-F) = O=C(c1ccc(F)cc1)*; Tfa = O=C(C(F)(F)F)*
Experiments:
Assay type in all cases: binding
[1] = biological target: T1, CAL PDZ domain (CALP) (Homo sapiens, UniProt Q9HD26); test: Surface plasmon resonance (SPR), equilibrium analysis; conditions: SPR value relative to FP value
T1 construct: made in house
Protocol: SPR experiments were performed on a Biacore X100 Plus (GE Healthcare Life Sciences), with CALP covalently immobilized on a CM5 sensor chip. […] Sensorgrams were analyzed using the Biacore evaluation software. Experiments were performed in duplicate or triplicate (n≥2). A detailed description is provided in ref. [21].

[2] = biological target: T1, CAL PDZ domain (CALP); test: Isothermal titration calorimetry (ITC); conditions: ITC value relative to FP value
Protocol: ITC experiments were performed and analyzed in a manner similar to that described previously, [20]. Titrations were performed with a Nano ITC 2G (TA Instruments). In brief, for a typical titration, 100–320 µM CALP was loaded into the 943 µL sample cell, and 2–3 mM peptide placed in a 250 µL injector syringe. For [drawing 8] , titrations were performed with polyhistidine-tagged CALP. Peptide concentrations were adjusted based on the amount of protein, so the final ratio of peptide to protein ranged between 3∶1–4∶1. Each titration included an initial 1 or 2 µL injection followed by 5 or 10 µL injections performed at 180 s intervals, for a total of 25–50 injections. The stirring speed was 250 rpm, and experimental temperature was 25°C. Thermograms were analyzed using NanoAnalyze software (TA Instruments). Details are described in ref. [21].

[3] = biological target: T1, CAL PDZ domain (CALP); test: Fluorescence polarization (FP) competition/displacement assay; conditions: for binding affinity stronger than iCAL36: FP displacement
Protocol: FP competition experiments were performed as previously described, [17].
For illustrative purposes, a logistic curve-fit is shown, but K I values and fractional reporter occupancy values were determined by least-squares fitting of the complete binding equation.

Compound	fold-deviation of K D from SPR from the value obtained by FP [1]	fold-deviation of K D from ITC from the value obtained by FP [2]	binding affinity stronger than iCAL36 [3] [fold]	change in binding affinity compared to iCAL36 ([3]; head-to-head FP displacement assays)
CC[C@H](C)[C@H](NC(=O)[C@@H](NC(=O)[C@H](CO)NC(=O)[C@@H](NC(=O)[C@H](CCCCNC(C)=O)NC(=O)[C@H](Cc1c[nH]c2ccccc12)NC(=O)[C@H](CCCNC(=N)N)NC(=O)[C@H](CO)NC(=O)[C@H](CC(N)=O)NC(=O)[C@H](C)N)[C@@H](C)O)[C@@H](C)CC)C(=O)O [Peptide C00003]	(2.0) fold	(1.5) fold	–	–
CC[C@H](C)[C@H](NC(=O)[C@H](CCCCNC(=O)c1ccc(F)cc1)NC(=O)[C@H](CO)NC(=O)[C@@H](NC(=O)[C@@H]1CCCN1C(=O)[C@H](Cc1c[nH]c2ccccc12)NC(=O)[C@H](CCCNC(=N)N)NC(=O)[C@H](CO)NC(=O)[C@H](CC(N)=O)NC(=O)[C@H](C)N)[C@@H](C)O)C(=O)O [Peptide C00006] (H-ANSRWPTSK(Benzoyl(4-F))I-OH)	(2.4) fold	(1.1) fold	~2	–
CC[C@H](C)[C@H](NC(=O)[C@H](CCCCNC(=O)C(F)(F)F)NC(=O)[C@H](CO)NC(=O)[C@@H](NC(=O)[C@@H]1CCCN1C(=O)[C@H](Cc1c[nH]c2ccccc12)NC(=O)[C@H](CCCNC(=N)N)NC(=O)[C@H](CO)NC(=O)[C@H](CC(N)=O)NC(=O)[C@H](C)N)[C@@H](C)O)C(=O)O [Peptide C00007] (H-ANSRWPTSK(Tfa)I-OH)	(1.6) fold	(2.4) fold	–	–
CC[C@H](C)[C@H](NC(=O)[C@@H](NC(=O)[C@H](CO)NC(=O)[C@@H](NC(=O)[C@@H]1CCCN1C(=O)[C@H](CCCCNC(C)=O)NC(=O)[C@H](CCCNC(=N)N)NC(=O)[C@H](CO)NC(=O)[C@H](CC(N)=O)NC(=O)[C@H](C)N)[C@@H](C)O)[C@@H](C)CC)C(=O)O [Peptide C00004]	(0.5) fold	–	–	–
CC[C@H](C)[C@H](NC(=O)[C@H](CCCCNC(=O)c1ccc(Br)cc1)NC(=O)[C@H](CO)NC(=O)[C@@H](NC(=O)[C@@H]1CCCN1C(=O)[C@H](Cc1c[nH]c2ccccc12)NC(=O)[C@H](CCCNC(=N)N)NC(=O)[C@H](CO)NC(=O)[C@H](CC(N)=O)NC(=O)[C@H](C)N)[C@@H](C)O)C(=O)O [Peptide C00005] (H-ANSRWPTSK(Benzoyl(4-Br))I-OH)	(1.8) fold	(1.9) fold	~2	–
H-ANSRWPTSK(Ac)I-OH [Peptide C00001]	(2.7) fold	(1.8) fold	–	–
H-ANSRWPK(Ac)SII-OH [Peptide C00002]	(0.7) fold	(0.5) fold	–	–
CC[C@H](C)[C@H](NC(=O)[C@@H](NC(=O)[C@H](CO)NC(=O)[C@@H](NC(=O)[C@@H]1CCCN1C(=O)[C@H](Cc1c[nH]c2ccccc12)NC(=O)[C@H](CCCNC(=N)N)NC(=O)[C@H](CO)NC(=O)[C@H](CC(N)=O)NC(=O)[C@H](C)NC(C)=O)[C@@H](C)O)[C@@H](C)CC)C(=O)O [Ac-iCAL36]	–	–	–	no significant change
